Assay results as given in ChEMBL document CHEMBL1201862, “PubChem BioAssay data set” (2004).
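Dose response: 5 concentrations. Exposure: 48 h. Format: 96-well plates. Endpoint: linear interpolation; highest concentration if not reached. Here, GI50 denotes the concentration required for 50% inhibition of growth.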 Active and inactive are the calls of the source. Cut-off read from the data, not from the text of the source: active = GI50 up to about 1.1 µM and inactive = higher.

What was measured:
Test in all cases: DTP human tumour cell line panel, 48 h
SNB-75 = system: SNB-75
UACC-62 = system: UACC-62
786-0 = system: 786-0
A498 = system: A498
RPMI-8226 = system: RPMI-8226
NCI-H460 = system: NCI-H460
DMS-273 = system: DMS-273
TK-10 = system: TK-10
Malme-3M = system: Malme-3M
OVCAR-4 = system: OVCAR-4
COLO 205 = system: COLO 205
MOLT-4 = system: MOLT-4
SW-620 = system: SW-620
SK-MEL-28 = system: SK-MEL-28
LXFL 529 = system: LXFL 529
LOX IMVI = system: LOX IMVI
IGROV-1 = system: IGROV-1
SF-539 = system: SF-539
HT-29 = system: HT-29
CCRF-CEM = system: CCRF-CEM
U-251 = system: U-251
HCC 2998 = system: HCC 2998
HL-60 = system: HL-60
K562 = system: K562
ACHN = system: ACHN
DLD-1 = system: DLD-1
RXF 631 = system: RXF 631
M19-MEL = system: M19-MEL
XF498 = system: XF498
NCI-H23 = system: NCI-H23
UACC-257 = system: UACC-257
SK-MEL-2 = system: SK-MEL-2
EKVX = system: EKVX
A549 = system: A549
HOP-62 = system: HOP-62
SR = system: SR
HCT-15 = system: HCT-15
SNB-19 = system: SNB-19
SN12C = system: SN12C
UO-31 = system: UO-31
HOP-18 = system: HOP-18
KM-20L2 = system: KM-20L2
NCI-H522 = system: NCI-H522
RXF 393 = system: RXF 393
OVCAR-3 = system: OVCAR-3
CAKI-1 = system: CAKI-1
NCI-H226 = system: NCI-H226
OVCAR-5 = system: OVCAR-5
SNB-78 = system: SNB-78
DMS-114 = system: DMS-114
HOP-92 = system: HOP-92
SK-MEL-5 = system: SK-MEL-5
SF-268 = system: SF-268
M14 = system: M14
SK-OV-3 = system: SK-OV-3

Compound | GI50 (SNB-75) | GI50 (A498) | GI50 (TK-10) | GI50 (OVCAR-4) | GI50 (MOLT-4) | GI50 (SK-MEL-28) | GI50 (IGROV-1) | GI50 (CCRF-CEM) | GI50 (HCC 2998) | GI50 (HL-60) | GI50 (K562) | GI50 (RXF 631) | GI50 (M19-MEL) | GI50 (XF498) | GI50 (NCI-H23) | GI50 (UACC-257) | GI50 (SK-MEL-2) | GI50 (EKVX) | GI50 (A549) | GI50 (HOP-62) | other results
Oc1cc(-c2ccco2)nc2cc3c(cc12)OCO3 | 12.5 µM (inactive) | 35.6 µM (inactive) | 72.6 µM (inactive) | 34.1 µM (inactive) | 33.7 µM (inactive) | > 100 µM (inactive) | 29.6 µM (inactive) | 38.4 µM (inactive) | > 100 µM (inactive) | 27.7 µM (inactive) | 6.61 µM (inactive) | 52.2 µM (inactive) | 44.9 µM (inactive) | 39.8 µM (inactive) | 80.9 µM (inactive) | 60 µM (inactive) | 57.8 µM (inactive) | > 100 µM (inactive) | 52.8 µM (inactive) | 10.9 µM (inactive) | GI50 (UACC-62): 27.9 µM (inactive); GI50 (786-0): 26.5 µM (inactive); GI50 (RPMI-8226): 40.1 µM (inactive); GI50 (NCI-H460): 34.3 µM (inactive); GI50 (DMS-273): 20 µM (inactive); GI50 (Malme-3M): 42.4 µM (inactive); GI50 (COLO 205): 17.6 µM (inactive); GI50 (SW-620): 25.9 µM (inactive); GI50 (LXFL 529): 58.9 µM (inactive); GI50 (LOX IMVI): 50.6 µM (inactive); GI50 (SF-539): 25.7 µM (inactive); GI50 (HT-29): 43.3 µM (inactive); GI50 (U-251): > 100 µM (inactive); GI50 (ACHN): 91 µM (inactive); GI50 (DLD-1): 39 µM (inactive); GI50 (SR): 54.3 µM (inactive); GI50 (HCT-15): 38.3 µM; GI50 (SNB-19): 27.1 µM (inactive); GI50 (SN12C): 55.5 µM (inactive); GI50 (UO-31): 46.2 µM (inactive)
COc1cc2c(c(OC)c1OC)-c1ccc(SC)c(=O)cc1C(CC(=O)Oc1ccc([N+](=O)[O-])cc1)C2 (stereo not drawn) | 0.286 µM (active) | 0.0469 µM (active) | 4.8 µM (inactive) | 3.85 µM (inactive) | 0.113 µM (active) | 0.19 µM (active) | 0.344 µM (active) | 0.0792 µM (active) | 0.119 µM (active) | 0.226 µM (active) | < 0.0444 µM (active) | < 0.01 µM (active) | 0.18 µM (active) | 0.0873 µM (active) | 0.132 µM (active) | 0.486 µM (active) | 0.336 µM (active) | 7.29 µM (inactive) | 0.123 µM (active) | 4.44 µM (inactive) | GI50 (HOP-18): > 33.5 µM (inactive); GI50 (KM-20L2): 0.0476 µM (active); GI50 (NCI-H522): 0.0551 µM (active); GI50 (RXF 393): 0.0331 µM (active); GI50 (OVCAR-3): 0.0538 µM (active); GI50 (CAKI-1): 0.207 µM (active); GI50 (NCI-H226): 0.128 µM (active); GI50 (OVCAR-5): 6.1 µM (inactive); GI50 (SNB-78): 0.044 µM (active); GI50 (DMS-114): 0.0902 µM (active); GI50 (HOP-92): 0.762 µM (active); GI50 (SK-MEL-5): 0.0726 µM (active); GI50 (HCT-15): 0.78 µM; GI50 (SF-268): 0.137 µM (active); GI50 (M14): 0.0607 µM (active); GI50 (SNB-19): 1.34 µM (inactive); GI50 (UO-31): 1.95 µM (inactive); GI50 (SK-OV-3): 0.0207 µM (active)
